From patent US20220024980A1, “LIPO-GLYCOPEPTIDE CLEAVABLE DERIVATIVES AND USES THEREOF” (INSMED INCORPORATED, priority 2018, published 2022)
Converted amounts (≈) assume the structure as drawn.

System: MRSA (USA300 ATCC BAA-1556)
Experiment: Minimum inhibitory concentrations against MRSA by broth microdilution
Format: cell-based, Staphylococcus aureus
Settings: Mueller Hinton II broth with 0.002% (v/v) Polysorbate-, compound = scaffold with R′ and R″ (table column)
Protocol: Example 7—Minimum Inhibitory Concentrations Against MRSA Determined Using Broth Microdilution
In vitro activities were determined using CLSJ-guided broth susceptibility testing to measure drug minimum inhibitory concentrations (MICs) of compounds against MRSA (USA300 ATCC BAA-1556). The test medium used for the MIC assay was Mueller Hinton II broth made with 0.002% (v/v) Polysorbate-. Media was prepared fresh on the day of testing and stored according to guidelines from CLSJ.

Row | MIC [mg/L] | Compound
1 | 0.016 (≈ 0.00955 µM) | CCCCCCCCCCCC(=O)NCCNC1(C)CC(OC2C(Oc3c4cc5cc3Oc3ccc(cc3Cl)C(O)C3NC(=O)C(NC(=O)C5NC(=O)C(CC(N)=O)NC(=O)C(NC(=O)C(CC(C)C)NC)C(O)c5ccc(c(Cl)c5)O4)c4ccc(O)c(c4)-c4c(O)cc(O)cc4C(C(=O)O)NC3=O)OC(CO)C(O)C2O)OC(C)C1O (centres unmarked) [RV62 (R″ = H)]
2 | 0.031 (≈ 0.0185 µM) | CCCCCCCCCCCCNC(=O)CNC1(C)CC(OC2C(Oc3c4cc5cc3Oc3ccc(cc3Cl)C(O)C3NC(=O)C(NC(=O)C5NC(=O)C(CC(N)=O)NC(=O)C(NC(=O)C(CC(C)C)NC)C(O)c5ccc(c(Cl)c5)O4)c4ccc(O)c(c4)-c4c(O)cc(O)cc4C(C(=O)O)NC3=O)OC(CO)C(O)C2O)OC(C)C1O (centres unmarked) [RV95 (R″ = H)]
